This passage reports Inhibition of activity results from patent publication US5736380A, “Maltose-trehalose converting enzyme, and preparation and uses thereof” (Kabushiki Kaisha Hayashibara Seibutsu Kagaku Kenkyujo, priority 1993, dated 1998).

Test [1] concerns the target T1, maltose-trehalose converting enzyme derived from Pimelobacter sp. R48 (Pimelobacter sp., UniProt P72235).
T1 construct: The culture obtained in Experiment 1 was centrifuged to obtain an about 0.5 kg wet cells; endogenous in cells; host or cells: Pimelobacter sp; R48 (FERM BP-4315), enzyme purified from the disrupted wild-type cells
T1 sequence (P72235 1-573): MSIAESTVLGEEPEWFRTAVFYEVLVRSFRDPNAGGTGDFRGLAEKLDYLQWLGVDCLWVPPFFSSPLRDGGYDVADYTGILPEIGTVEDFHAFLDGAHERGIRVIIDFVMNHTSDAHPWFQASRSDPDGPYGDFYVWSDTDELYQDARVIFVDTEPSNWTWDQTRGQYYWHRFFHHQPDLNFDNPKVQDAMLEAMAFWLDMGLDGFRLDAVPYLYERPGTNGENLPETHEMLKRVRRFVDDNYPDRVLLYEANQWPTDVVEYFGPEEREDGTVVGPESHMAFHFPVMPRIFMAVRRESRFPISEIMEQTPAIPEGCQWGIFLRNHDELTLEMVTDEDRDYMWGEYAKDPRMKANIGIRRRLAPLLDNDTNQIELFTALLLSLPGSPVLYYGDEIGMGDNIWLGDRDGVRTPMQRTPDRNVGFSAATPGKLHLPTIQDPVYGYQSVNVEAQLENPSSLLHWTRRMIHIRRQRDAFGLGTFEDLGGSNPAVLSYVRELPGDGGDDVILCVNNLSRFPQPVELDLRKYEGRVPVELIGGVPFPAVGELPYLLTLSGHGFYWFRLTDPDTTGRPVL
As to the kind of experiment: Inhibition of enzyme activity. It counts as biochemical. Conditions: one mM Cu^++ or Hg^++, 50 mM Tris-HCl buffer. The procedure: (§1) The activity of the present maltose-trehalose converting enzyme is assayed as follows: One ml of an enzyme solution is added to one ml of 20 w/v % maltose as a substrate in 10 mM phosphate buffer (pH 7.0), and the mixture solution is incubated at 25° C., 35° C. or 60° C. for 60 min, followed by the heating the solution at 100° C. for 10 min to suspend the enzymatic reaction. To the resultant reaction mixture is precisely diluted by 11-fold with 50 mM phosphate buffer (pH 7.5), and 0.4 ml of the diluted solution is admixed with 0.1 ml of a trehalase solution having one unit/ml of trehalase. The resultant solution is incubated at 45° C. for 120 min, followed by determining the amount of glucose by the glucose-oxidase method. As a control, by using trehalase and an enzyme solution, which were preheated at 100° C. for 10 min to inactivate the enzyme, the activity of the enzyme solution is assayed similarly as above. With the above assay, the content of trehalose, formed by the present maltose-trehalose converting enzyme, is determined based on the amount of glucose formed, and one unit activity of the enzyme is defined as the amount of enzyme which forms one μmole of trehalose per minute. As regards to the reaction temperature, it is set to 25° C. for the enzyme of a microorganism of the genus Pimelobacter; 35° C. for that of the genus Pseudomonas; and 60° C. for that of the genus Thermus.
Effects of temperature and pH on the activity of the present enzyme were studied in accordance with the method as used for assaying the enzyme activity. […] The thermal stability of the enzyme was determined by incubating it in 50 mM phosphate buffers (pH 7.0) in test tubes at different temperatures for 60 min, cooling the test tubes with cold water, and assaying the residual enzyme activity in each buffer. The pH stability of the enzyme was determined by incubating it in 50 mM phosphate buffers having different pHs at 20° C. for 60 min, adjusting the buffers to pH 7.0, and assaying the residual enzyme activity in each buffer.

Test [2] concerns the target maltose-trehalose converting enzyme derived from Pseudomonas putida H262 (Pseudomonas putida, UniProt Q88FN0). As to the kind of experiment: Inhibition of enzyme activity. It counts as biochemical. The conditions noted are these: one mM Cu^++ or Hg^++, 50 mM Tris-HCl buffer. The procedure:
as §1, with “The resultant solution is incubated at 45° C. for 120 min, followed by determining the amount of glucose by the glucose-oxidase method.” left out, “With the above assay, the content of trehalose, formed by the present maltose-trehalose converting enzyme, is determined based on the amount of glucose formed, and one unit activity of the enzyme is defined as the amount of enzyme which forms one μmole of trehalose per minute.” left out
Effects of temperature and pH on the activity of the present enzyme were studied in accordance with the method as used for assaying the enzyme activity. The results were respectively shown in FIG. 5 (effect of temperature) and FIG. 6 (effect of pH). The optimum temperature of the enzyme was about […] when incubated at pH 7.0 for 60 min and the optimum pH was about 7.3-8.3 when incubated at 35° C. for 60 min. The thermal stability of the enzyme was determined by incubating it in containers with 50 mM phosphate buffers (pH 7.0) at different temperatures for 60 min, cooling the resultant buffers in the containers with cold water, and assaying the residual enzyme activity in each buffer. The pH stability of the enzyme was determined by incubating it in 50 mM phosphate buffers having different pHs at 35° C. for 60 min, adjusting the resultant buffers to pH 7.0, and assaying the residual enzyme activity in each buffer. The enzyme was stable up to a temperature of about 40° C. and stable at a pH of about 6.0-9.5. […]

The structures appear in SMILES notation. Entries after “also recorded” stand apart in the source; their conditions may differ. Where a name gives a salt, the structure may show the parent alone.

Chain of maltose-trehalose converting enzyme derived from Pseudomonas putida H262 (Q88FN0 entry or part of it): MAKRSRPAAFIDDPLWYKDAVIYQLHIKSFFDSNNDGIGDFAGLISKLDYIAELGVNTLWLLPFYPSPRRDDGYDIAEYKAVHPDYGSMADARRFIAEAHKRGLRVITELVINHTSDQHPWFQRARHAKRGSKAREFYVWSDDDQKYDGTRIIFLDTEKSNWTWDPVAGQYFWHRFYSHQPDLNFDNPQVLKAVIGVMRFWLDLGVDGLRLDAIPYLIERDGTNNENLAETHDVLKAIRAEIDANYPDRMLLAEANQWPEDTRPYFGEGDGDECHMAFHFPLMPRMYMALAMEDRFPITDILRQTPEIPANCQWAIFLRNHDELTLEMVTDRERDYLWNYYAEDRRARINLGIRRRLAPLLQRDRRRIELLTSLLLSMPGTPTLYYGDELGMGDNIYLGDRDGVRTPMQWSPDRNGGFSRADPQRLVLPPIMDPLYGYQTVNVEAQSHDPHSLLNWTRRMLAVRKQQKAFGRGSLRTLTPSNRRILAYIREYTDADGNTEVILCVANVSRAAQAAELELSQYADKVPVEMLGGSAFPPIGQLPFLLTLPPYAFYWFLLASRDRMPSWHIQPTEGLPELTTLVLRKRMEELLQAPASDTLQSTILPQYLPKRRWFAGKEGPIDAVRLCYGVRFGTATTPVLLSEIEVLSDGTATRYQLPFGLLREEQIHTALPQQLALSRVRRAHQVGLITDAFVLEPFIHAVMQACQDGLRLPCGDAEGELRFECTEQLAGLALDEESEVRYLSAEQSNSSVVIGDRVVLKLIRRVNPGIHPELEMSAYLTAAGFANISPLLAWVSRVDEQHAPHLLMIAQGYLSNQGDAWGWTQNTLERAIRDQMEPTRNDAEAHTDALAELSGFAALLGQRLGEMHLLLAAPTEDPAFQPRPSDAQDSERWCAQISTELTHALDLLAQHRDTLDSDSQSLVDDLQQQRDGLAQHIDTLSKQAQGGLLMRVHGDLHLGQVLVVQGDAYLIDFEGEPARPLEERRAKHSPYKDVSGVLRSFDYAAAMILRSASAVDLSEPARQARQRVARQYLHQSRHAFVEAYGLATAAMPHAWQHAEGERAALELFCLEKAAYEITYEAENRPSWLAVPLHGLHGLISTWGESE

Turning to `[Cu+2]` [Cu^++], the Inhibition of activity result in test [1] and in test [2] was “inhibited; also recorded: inhibitory” each time.
As for `[Hg+2]` [Hg^++], the Inhibition of activity result in test [1] and in test [2] was “inhibited; also recorded: inhibitory” throughout.
On to `NC(CO)(CO)CO` [Tris-HCl buffer], for which the Inhibition of activity result in test [1] and in test [2] was “inhibited; also recorded: inhibitory” in each case.
